This is an account of results in PubChem BioAssay AID1259334 (Broad Institute, 2017).

Calls of active or inactive are those of the source. No stated cut-off is given here; in the data, active means AC50 below about 11 µM.

The experiment deals with B cell line, TNFa signaling counterscreen reporter. Description: TNFa pathway inhibition counter-screen, B-lineage cells – dose response (AID 1259334).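 Further: cells stimulated with TNFa after compound preincubation.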 A general note: The purpose of a counterscreen is to sort out artefacts and off-target activity.
On to `COc1cccc(S(=O)(=O)N(C)C[C@H]2OCc3ccccc3-c3c(n(C)c4ccccc34)C(=O)N([C@@H](C)CO)C[C@@H]2C)c1`, for which the AC50 is > 20 µM (inactive). As to `N#Cc1cccc(-c2ccc([C@@H]3[C@@H]4CN(S(=O)(=O)c5ccc(-c6ccccc6)cc5)C[C@H]3N4)cc2)c1`, the concentration at half-maximal activity (AC50) was 11.4 µM. As for `CC1=C(O)C(=O)C=C2C1=CC=C1C2(C)CCC2(C)C3CC(C)(C(=O)O)CCC3(C)CCC12C` (centres undefined), the AC50 was 0.414 µM. Take `Cc1cc(C)nc(Sc2ncnc(N)c2[N+](=O)[O-])n1`: the half-maximal activity concentration (AC50) was 2.53 µM.

As for `c1ccc(-c2nc(-c3ccccn3)no2)cc1`, the half-maximal activity concentration (AC50) is 3.9 µM. Regarding `CN(C)c1ccc(C=c2c3cc(O)ccc3n3c2cc(-c2ccccc2)[n+]3C)cc1`, the AC50 is 2.46 µM. With `O=C(Nc1ccc(C(F)(F)F)cc1)N1C[C@@H]2N[C@H](C1)C2c1ccc(-c2ccccc2)cc1` (some centres undefined), the half-maximal activity concentration (AC50) was 3.28 µM. The value for `O=C1CC(c2ccc3c(c2)OCO3)Sc2nc3ccccc3n21` (centres undefined) was 3.83 µM; that for `O=C1CCCCC1Sc1nnc(-c2ccc3c(c2)OCO3)o1` (centres undefined) was 0.871 µM. The value for `COc1cc(C(C)C)c2c(c1)S(=O)(=O)N(COc1cc(=O)n3cccc(OCCN4CCCCC4)c3n1)C2=O` was 3.4 µM. As to `N#Cc1cccc(-c2ccc(C3[C@@H]4CN(C(=O)Nc5ccc(C(F)(F)F)cc5)C[C@H]3N4)cc2)c1` (some centres undefined), the concentration at half-maximal activity (AC50) is 10 µM. As for `CCC1=C(CC2NCCc3ccccc32)CC2c3cc(OC)c(OC)cc3CCN2C1` (centres undefined), the half-maximal activity concentration (AC50) is 1.19 µM. Regarding `N#C[C@H]1[C@H](c2ccc(C#Cc3ccc(F)cc3)cc2)[C@@H](CO)N1C(=O)C1CCC1`, the AC50 is > 20 µM (inactive). `COc1ccc(S(=O)(=O)N(C)C[C@H]2Oc3ccc(NC(=O)Nc4ccc(C(F)(F)F)cc4)cc3C(=O)N([C@@H](C)CO)C[C@@H]2C)cc1`: the AC50 is > 20 µM (inactive). With `CC(=O)OC1C(=O)OCC23CCC4(C)OC4C2OC2CC(OC(=O)C=CC=CC(=O)OCCC1C)C3(C)C21CO1` (centres undefined), the AC50 is 0.00412 µM. The value for `CSC1SCC2C(=O)N(C)C(C(C)C)C(=O)OCC(NC(=O)c3cnc4ccccc4n3)C(=O)NC(C)C(=O)N(C)C1C(=O)N(C)C(C(C)C)C(=O)OCC(NC(=O)c1cnc3ccccc3n1)C(=O)NC(C)C(=O)N2C` (centres undefined) was below 0.0005 µM; that for `COc1cccc(S(=O)(=O)N(C)C[C@@H]2OCc3ccccc3-c3c(n(C)c4ccccc34)C(=O)N([C@@H](C)CO)C[C@@H]2C)c1` was > 20 µM (inactive). Take `CCOc1ncccc1C(=O)OC(C)C(=O)Nc1ccc(Cl)cn1` (centres undefined): the AC50 was 10.3 µM.

For `COc1cccc(C#Cc2ccc([C@H]3[C@@H](C#N)N(C(=O)c4ccccn4)[C@@H]3CO)cc2)c1`, the AC50 is 10.3 µM. The value for `O=C(NC(=S)/C(=C1\CCCCCN1)[N+](=O)[O-])c1ccccc1` was 0.12 µM. On to `O=[N+]([O-])c1ccc(N2CCOCC2)c2c1no[n+]2[O-]`, for which the AC50 was 6.5 µM. Next, `COc1ccc(S(=O)(=O)Nc2ccc3c(c2)C(=O)N([C@@H](C)CO)C[C@@H](C)[C@H](CN(C)Cc2ccc(C(F)(F)F)cc2)OCCCC[C@@H](C)O3)cc1`: 8.32 µM.

For the compound `COc1ccc(Cl)cc1NC(=O)Nc1cc(C)nc2ccccc12`, the AC50 was > 20 µM (inactive). `CC(C)(C)[C@H](N)C(=O)N[C@H]1CCC2C3CC=C4C[C@@H](O)CC[C@]4(C)C3CC[C@@]21C` (some centres undefined): the AC50 is 4.1 µM. With `[O-]C(=C(C(=S)Nc1cccc2ccccc12)[n+]1ccccc1)c1ccc2c(c1)OCCO2`, the AC50 is > 20 µM (inactive). Turning to `CC(=O)NC12CC3CC(C1)CC(C(=O)OCC(=O)c1ccc4c(c1)OCCO4)(C3)C2`, the concentration at half-maximal activity (AC50) was 6.44 µM. For `COc1ccc(CN(CCC(c2ccccc2)c2ccc(OC(C)C)cc2)C(=O)CCl)cc1OC` (centres undefined), the AC50 was 1.46 µM. The value for `O=C(Nc1ccc2c(c1)OCCO2)C1CCCC1` was 1.76 µM. The value for `CCCCCCCCCc1ccc(OCCOCCOCCOCCOCCOCCOCCOCCOCCO)cc1` was 4.58 µM. For the compound `COc1cccc2c1C(=O)c1c(O)c3c(c(O)c1C2=O)C[C@@](O)(C(C)=O)C[C@@H]3O[C@H]1C[C@H](N)[C@H](O)[C@H](C)O1`, the AC50 is 0.359 µM.

Regarding `CC=Cc1cc2c(c(=O)o1)C(=O)C(O)C(C)O2` (centres undefined), the half-maximal activity concentration (AC50) is 10.4 µM. `CC(OC(=O)c1cc(Br)ccc1O)C(=O)Nc1ccc(S(=O)(=O)N2CCCC2)cc1` (centres undefined): the concentration at half-maximal activity (AC50) was 7.82 µM. As for `CS(=O)(=O)c1ccc(C(=O)OCC(=O)NC(=O)C2CCCCC2)cc1[N+](=O)[O-]`, the AC50 was 2.79 µM.

As for `CCN1C(=O)C(CC(=O)Nc2ccc(F)cc2)N(Cc2ccco2)C1=S` (centres undefined), the AC50 is > 20 µM (inactive).

As to `CC(C)(C)OC(=O)CC(S(=O)(=O)c1ccccc1)S(=O)(=O)c1ccccc1`, the half-maximal activity concentration (AC50) is 1.07 µM. With `O=C(COC(=O)c1ccccc1)c1ccc2c(c1)OCCO2`, the AC50 was 0.986 µM.

With `Cc1cc(OCC(=O)OCC(=O)NCc2ccco2)ccc1Cl`, the AC50 was > 20 µM (inactive). In the case of `COC(=O)c1ccccc1-c1c2ccc(=N)cc-2oc2cc(N)ccc12`, the AC50 is 4.57 µM. Take `O=C(Cn1ncc(Cl)c(Cl)c1=O)NC1CCCCC1`: the concentration at half-maximal activity (AC50) is 2.42 µM. For the compound `COc1ccc2c3c(n(C)c2c1)[C@@H](CO)N(C(=O)Nc1ccc(F)cc1)CC31CN(Cc2ccccc2F)C1`, the AC50 was > 20 µM (inactive).

Take `C[C@@H]1O[C@@H](O[C@H]2C[C@@H](O)[C@]3(CO)[C@H]4[C@H](O)C[C@]5(C)[C@@H](C6COC(=O)C6)CC[C@]5(O)[C@@H]4CC[C@]3(O)C2)[C@H](O)[C@H](O)[C@H]1O` (some centres undefined): the AC50 is 2.76 µM. For `CCCCNC(=O)C1(C)CCN1C(=O)c1cc(-c2cccs2)oc1C` (centres undefined), the AC50 was 2.59 µM. Regarding `COc1ccccc1NC(c1cccnc1)c1ccc2cccnc2c1O` (centres undefined), the half-maximal activity concentration (AC50) was 8.22 µM.

For the compound `N#C[C@@H]1[C@H](c2ccc(C#CC3CCCCC3)cc2)[C@@H](CO)N1C(=O)Nc1ccc(F)cc1`, the AC50 is > 20 µM (inactive).

`Cc1csc(NC(=O)c2ccc(N3CCCC3=O)cc2)n1`: the half-maximal activity concentration (AC50) was 3.75 µM. The value for `CC1CC(C)C(=NNC(N)=O)C(C(O)CC2CCC(=O)NC2=O)C1` (centres undefined) was 0.188 µM; that for `C1CCC(C(CC2CCCCN2)C2CCCCC2)CC1` (centres undefined) was 2.75 µM; that for `Cc1[nH]c2ccccc2c1C(c1ccccn1)N1CCC(C(N)=O)CC1` (centres undefined) was 6 µM. Turning to `C[C@@H]1CCCCO[C@H](CN(C)CC2CCCCC2)[C@H](C)CN([C@@H](C)CO)C(=O)c2cc(NC(=O)Nc3ccc(C(F)(F)F)cc3)ccc2O1`, the AC50 is > 20 µM (inactive). The value for `Cc1c(CCOC(=O)CC23CC4CC(CC(C)(C4)C2)C3)sc[n+]1CC(=O)c1ccccc1` was 1.81 µM. `COc1ccc(/C=C\c2nc(=O)c3ccccc3o2)cc1`: the half-maximal activity concentration (AC50) is 9.73 µM.

For `O=C1CC(=O)OC(c2ccc([N+](=O)[O-])cc2)O1`, the half-maximal activity concentration (AC50) is 1.09 µM. Take `NC(c1csc(NC(=O)Nc2cccc(Cl)c2)n1)c1ccccc1Cl` (centres undefined): the AC50 is 7.41 µM.

`C[C@H]1O[C@@H](O[C@H]2[C@@H](O)C[C@H](O[C@H]3[C@@H](O)C[C@H](O[C@H]4CC[C@]5(C)C6C[C@@H](O)[C@]7(C)[C@@H](C8=CC(=O)OC8)CC[C@]7(O)C6CC[C@@H]5C4)O[C@@H]3C)O[C@@H]2C)C[C@H](O)[C@@H]1O` (some centres undefined): the concentration at half-maximal activity (AC50) is 0.697 µM.

`O=C1NC2C(O)C(O)C(O)C(O)C2c2cc3c(c(O)c21)OCO3` (centres undefined): the AC50 was 0.125 µM. With `O=C1NC2C(=CC(O)C(O)C2O)c2cc3c(c(O)c21)OCO3` (centres undefined), the AC50 is 0.0423 µM. Next, `N#C[C@H]1[C@H](c2ccc(C#Cc3ccccc3F)cc2)[C@@H](CO)N1C(=O)c1cccnc1`: 9.37 µM; `CC(=NNc1ccc2ccccc2n1)c1ccccc1O`: 1.52 µM.

Turning to `CCC(C)[C@H]1O[C@]2(CC[C@@H]1C)C[C@@H]1C[C@@H](C/C=C(\C)[C@@H](OC3C[C@H](OC)C(O[C@H]4C[C@H](OC)[C@@H](O)[C@H](C)O4)[C@H](C)O3)[C@@H](C)/C=C/C=C3\CO[C@@H]4[C@H](O)C(C)=C[C@@H](C(=O)O1)[C@]34O)O2` (some centres undefined), the AC50 is > 20 µM (inactive). Turning to `Cc1nc(C)c(C(=O)Nc2ncc([N+](=O)[O-])s2)o1`, the AC50 was 8.61 µM. The value for `O=C(Nc1ccc(C(F)(F)F)cc1)Nc1ccc2c(c1)[C@H]1C[C@@H](CC(=O)N3CCc4ccccc4C3)O[C@H](CO)[C@H]1O2` was 10.7 µM; that for `COc1cc2c(cc1OC)C(=O)C(Br)CC2` (centres undefined) was 2.97 µM. Take `C[C@H](CO)N1C[C@H](C)[C@H](CN(C)C(=O)Nc2cccc(Cl)c2Cl)OCc2ccccc2-c2c(n(C)c3ccccc23)C1=O`: the AC50 is 2.81 µM. Next, `CC(C)c1c(O)ccc2c1CCC1C(C)(C)CCC[C@]21C` (some centres undefined): 5.43 µM; `C[C@@H]1CN([C@H](C)CO)C(=O)c2ccccc2-c2ccccc2CO[C@@H]1CN(C)Cc1ccccc1C(F)(F)F`: 10.7 µM. The value for `CCOC(=O)c1c(SCCN2CCCC2)n(-c2ccccc2)c(=S)n(-c2ccccc2)c1=O` was 4.78 µM. Next, `CC1(C)C(=O)C=C[C@@]2(C)C1C(=O)C(=O)[C@]1(C)C2CC[C@@]2(C)[C@H](c3ccoc3)C[C@H]3O[C@]321` (some centres undefined): 1.74 µM; `CC1OC(OC2C(O)CC(OC3C(O)CC(OC4CCC5(C)C(CCC6C5CCC5(C)C(C7=CC(=O)OC7)C(O)CC65O)C4)OC3C)OC2C)CC(O)C1O` (centres undefined): 0.745 µM; `N#Cc1cccc(-c2ccc(C3[C@H]4CNC[C@@H]3N4Cc3ccc4c(c3)OCO4)cc2)c1` (some centres undefined): 6.32 µM.

With `O=C(Nc1cccc(N2C(=O)C=CC2=O)c1)c1cccs1`, the AC50 is 1.22 µM. For `CN(C)C(=S)SSC(=S)N(C)C`, the AC50 was 0.0358 µM.

With `CCOc1ccc(OCc2cccc(C(=O)N3CCOCC3)c2)cc1`, the AC50 is 2.84 µM. Turning to `CC(=O)OCC(=O)C1(O)CCC2C3CCC4=CC(=O)CCC4(C)C3(Cl)C(O)CC21C` (centres undefined), the AC50 was > 20 µM (inactive).

As for `Cc1ccccc1NC(=O)c1nc(S(C)(=O)=O)ncc1Cl`, the concentration at half-maximal activity (AC50) was 1.96 µM. As for `CC[C@@]1(O)C(=O)OCc2c1cc1n(c2=O)Cc2cc3c(CN(C)C)c(O)ccc3nc2-1`, the AC50 was 1.01 µM. In the case of `CC(=O)Nc1ccc(Sc2ccc([N+](=O)[O-])o2)cc1`, the AC50 was 1.64 µM.

For the compound `O=C(c1nnsc1S(=O)(=O)c1ccc(Cl)cc1)N1CCOCC1`, the concentration at half-maximal activity (AC50) is 2.07 µM. Regarding `Cc1ccccc1C(=O)N1CCC(C(=O)Nc2nc3ccc(F)cc3s2)CC1`, the AC50 was 7.86 µM. In the case of `CO[C@@H](CN(C)S(=O)(=O)c1ccc(Cl)cc1)[C@H](C)CN(Cc1ccccc1Cl)[C@@H](C)CO`, the AC50 was > 20 µM (inactive).

The AC50 is the concentration at which the activity in the assay is half-maximal.
